What was measured:
[1] = test system: composited rumen contents; experiment: In vitro ruminal incubation: volatile fatty acid production
Experimental: Each of the products was tested using in vitro ruminal incubation to determine the product's influence on ruminal pH, volatile fatty acid production in relation to changes in ruminal pH, and the associative effects of ruminal pH and volatile fatty acid on dry matter disappearance, starch disappearance, and neutral detergent fiber disappearance. Incubation solution containing water, composited rumen contents, and Van Soest buffer was placed in 1 L-incubation vessels (1 L oval deli cup with lid and Bunsen valve). Simulated feeding bags were obtained by placing 3 g of ground (Wiley Mill, 8 mm screen) total meal rations (10% alfalfa hay, 35% corn silage, 50% corn grain, and 5% vitamin/minerals) into 5 cm×10 cm bags with a pore size of 40 microns. Product 1 was added to each of eight replicate feeding bags in an amount at 0.2273 g/L. Product 2 was added to another set of eight replicate bags in an amount of 0.3704 g/L. Product 3 was added to another set of eight replicate bags in an amount of 0.5710 g/L. Control was added to another set of eight replicate bags in an amount of 0.1 g/L. A fifth set of eight replicate bags contained just the 3g of ground total meal rations to serve as a “Blank” control. To simulate twice-a-day-feeding, four replicates from each set of replicates were added to the incubation vessels at zero hours (0 H), and four more were added at twelve hours (12 H). The incubation vessels were placed into a temperature controlled, air jacketed, anaerobic incubator (39° C., and 20% carbon dioxide) for the duration of their assigned incubation time. Ruminal pH was measured during each incubation time. At zero hours and twelve hours, pH was also recorded before and after the simulated feeding. […] Dry matter disappearance, starch disappearance, and neutral detergent fiber disappearance were measured by removing replicate bags at the same hours the volatile fatty acid aliquots were taken, drying them in a forced-air oven at 60° C. to a constant weight, and storing them for future analysis. […] The first feeding was monitored for 12 hours (2, 6, and 12). Then the second feeding was monitored at 14 and 18 hours which corresponded to the 2 and 6 hours post-feeding.

[2] = test system: composited rumen contents; experiment: In vitro ruminal incubation: ruminal pH; conditions: over a 24 hour feeding cycle
Experimental: Each of the products was tested using in vitro ruminal incubation to determine the product's influence on ruminal pH, volatile fatty acid production in relation to changes in ruminal pH, and the associative effects of ruminal pH and volatile fatty acid on dry matter disappearance, starch disappearance, and neutral detergent fiber disappearance. Incubation solution containing water, composited rumen contents, and Van Soest buffer was placed in 1 L-incubation vessels (1 L oval deli cup with lid and Bunsen valve). Simulated feeding bags were obtained by placing 3 g of ground (Wiley Mill, 8 mm screen) total meal rations (10% alfalfa hay, 35% corn silage, 50% corn grain, and 5% vitamin/minerals) into 5 cm×10 cm bags with a pore size of 40 microns. […] Ruminal pH was measured during each incubation time. At zero hours and twelve hours, pH was also recorded before and after the simulated feeding. […] Dry matter disappearance, starch disappearance, and neutral detergent fiber disappearance were measured by removing replicate bags at the same hours the volatile fatty acid aliquots were taken, drying them in a forced-air oven at 60° C. to a constant weight, and storing them for future analysis.

[3] = test system: composited rumen contents; experiment: In vitro ruminal incubation: dry matter, starch and neutral detergent fiber disappearance
Experimental: Each of the products was tested using in vitro ruminal incubation to determine the product's influence on ruminal pH, volatile fatty acid production in relation to changes in ruminal pH, and the associative effects of ruminal pH and volatile fatty acid on dry matter disappearance, starch disappearance, and neutral detergent fiber disappearance.
Incubation solution containing water, composited rumen contents, and Van Soest buffer was placed in 1 L-incubation vessels (1 L oval deli cup with lid and Bunsen valve). Simulated feeding bags were obtained by placing 3 g of ground (Wiley Mill, 8 mm screen) total meal rations (10% alfalfa hay, 35% corn silage, 50% corn grain, and 5% vitamin/minerals) into 5 cm×10 cm bags with a pore size of 40 microns. Product 1 was added to each of eight replicate feeding bags in an amount at 0.2273 g/L. Product 2 was added to another set of eight replicate bags in an amount of 0.3704 g/L. Product 3 was added to another set of eight replicate bags in an amount of 0.5710 g/L. Control was added to another set of eight replicate bags in an amount of 0.1 g/L. A fifth set of eight replicate bags contained just the 3g of ground total meal rations to serve as a “Blank” control.
To simulate twice-a-day-feeding, four replicates from each set of replicates were added to the incubation vessels at zero hours (0 H), and four more were added at twelve hours (12 H). The incubation vessels were placed into a temperature controlled, air jacketed, anaerobic incubator (39° C., and 20% carbon dioxide) for the duration of their assigned incubation time.
Ruminal pH was measured during each incubation time. At zero hours and twelve hours, pH was also recorded before and after the simulated feeding. Volatile fatty acid production was measured by taking 50 ml aliquots of the supernatant of each incubation vessel at 0, 2, 6, 12, 14, 18, and 24 hours, acidifying the aliquot with 5 ml of 50% HCl, and freezing it for future analysis. Dry matter disappearance, starch disappearance, and neutral detergent fiber disappearance were measured by removing replicate bags at the same hours the volatile fatty acid aliquots were taken, drying them in a forced-air oven at 60° C. to a constant weight, and storing them for future analysis.
Dry matter, starch, and neutral detergent fiber concentrations were measured at 2, 4, 6, 10, 12, 16, 18, and 22 hours of incubation. The measurements for starch disappearance and neutral detergent fiber disappearance were made at 2, 6, 16, and 22 hours of incubation. The early times were selected to monitor the faster degradation of starch, and the later times to monitor the slower degradation of neutral detergent fiber. […]

[4] = in vitro incubation, at the two peaks of 2 and 14 hours
[5] = in vitro incubation, overall values at 18 hours

## O=C([O-])O.[Na+] [Control, sodium bicarbonate]
[1]; at 18 H, after the second feeding (12 H), FIG. 4
  total volatile fatty acids concentration: higher concentration at 18 H compared to that of Product 2
[1]; from Table 3, high total VFA plus high propionic acid without decrease in acetic acid
  ratio of even- to odd-numbered carbon chain VFAs, overall assessment: superior to the other treatments
[1]; [4]
  A:P Peaks (acetic acid to propionic acid ratio at peak concentrations): 8.30
  AB:P Peaks (sum of acetic and butyric acid to propionic acid ratio at peak concentrations): 9.39
[1]; [5]
  A:P (acetic acid to propionic acid ratio): 11.61
  AB:P (sum of acetic acid and butyric acid to propionic acid ratio): 12.50
[2]
  buffering of rumen pH: only a “flash” neutralization that was soon dissipated
[3]; first 11 hours of the feeding cycle
  dry matter disappearance: little dry matter disappearance
[3]; in vitro incubations, FIG. 8
  dry matter disappearance: best results
[3]; in vitro incubations, FIG. 9
  starch disappearance: best results
[3]; in vitro incubations, FIG. 10
  neutral detergent fiber disappearance: higher neutral detergent fiber disappearance over Products 1, 2, and 3, and Blank

Reference: patent US9566240B2, “Compositions for multiphase, staggered, or sustained release of an active substance” (CLABBER GIRL CORPORATION, priority 2014, dated 2017)
